Data: patent US4273923A, “Process for preparing aminoglycoside derivatives” (Shionogi & Co., Ltd., priority 1979, dated 1981)
Converted amounts (≈) assume the structure as drawn.

Key:
[1] = system: Staphylococcus epidermidis TB-302; experiment: MIC by agar dilution method; format: cell-based; conditions: TB302, innoculum size 10^4 CFU/ml, 37° C., 18 to 20 hours, read-out: Minimum Inhibitory Concentration (MIC)
From the text: (1) Preparation of bacterial suspensions
(3) Determination of MIC values

[2] = system: Escherichia coli W-677/JR 762; experiment: MIC by agar dilution method; conditions: W677/JR762, 20 h, read-out: Minimum Inhibitory Concentration (MIC)
Protocol: (§1) MIC was determined by the following agar dilution method:
(§2) One loopful of a strain of bacteria to be tested on agar slant was inoculated into a medium for growth of inoculum (Trypto Soy Broth; Eiken Chemical Co.) and incubated at 37° C. overnight.
(§3) (2) Preparation of medium for antibacterial activity test
(§4) A sample solution of aminoglycoside derivative was subjected to serial two-fold dilutions with sterile water. These diluted sample solutions were distributed to the Modified Mueller Hinton Agar medium (Nissui-Seiyaku Co.), mixed gently and allowed to solidify.
(§5) One loopful of the bacterial suspension prepared in (1) was placed on the surface of the medium prepared in (2) containing the aminoglycoside derivative in various concentrations at 10^6 CFU/ml inoculum size.

[3] = system: Klebsiella pneumoniae Kl-168; experiment: MIC by agar dilution method; conditions: KL168, 20 h, read-out: Minimum Inhibitory Concentration (MIC)
Protocol: as §1, §2, §3, §4, §5

[4] = system: Proteus morganii Morg. 96; experiment: MIC by agar dilution method; conditions: Morganella morganii, MORG.96, 20 h, read-out: Minimum Inhibitory Concentration (MIC)
Protocol: as §1, §2, §3, §4, §5

[5] = compared with kanamycin A; cited from earlier work

Structure (SMILES)	MIC [1] [µg/mL]	MIC [2] [µg/mL]	MIC [3] [µg/mL]	MIC [4] [µg/mL]	antimicrobial activity [5]
NC[C@H]1O[C@H](O[C@H]2[C@H](O)[C@@H](O[C@H]3O[C@H](CO)[C@@H](O)[C@H](N)[C@H]3O)[C@H](N)C[C@@H]2N)[C@H](N)C[C@@H]1O [TOB, tobramycin]	3.1 (≈ 6.63 µM)	50 (≈ 107 µM)	100 (≈ 214 µM)	25 (≈ 53.5 µM)	–
NCC1=CC[C@@H](N)[C@@H](O[C@H]2[C@H](O)[C@@H](O[C@H]3O[C@H](CO)[C@@H](O)[C@H](N)[C@H]3O)[C@H](N)C[C@@H]2N)O1 [[A], O-[3-amino-3-deoxy-α-D-glucopyranosyl-(1→6)]-O-[2,6-diamino-2,3,4,6-tetradeoxy-α-D-glycero-hex-4-enopyranosyl-(1→4)]-2-deoxy-D-streptamine]	0.2 (≈ 0.445 µM)	12.5 (≈ 27.8 µM)	50 (≈ 111 µM)	12.5 (≈ 27.8 µM)	–
NCC[C@H](O)C(=O)N[C@@H]1C[C@H](N)[C@@H](O[C@H]2O[C@H](CN)[C@@H](O)[C@H](O)[C@H]2O)[C@H](O)[C@H]1O[C@H]1O[C@H](CO)[C@@H](O)[C@H](N)[C@H]1O [amikacin]	–	–	–	–	more potent than kanamycin A
